According to patent publication US9469615B2, “Quinoxalines and AZA-quinoxalines as CRTH2 receptor modulators” (Merck Sharp & Dohme Corp., priority 2010, dated 2016):

biological target: T1, hCRTH2 (Homo sapiens, UniProt Q9Y5Y4); assay: Radioligand binding assay ([3H]PGD2 competition, HEK-hCRTH2 membranes); conditions: [3H]PGD2 binding, rated A-E (Table A)
T1 construct: expressed in transfected cells; host or cells: HEK (human embryonic kidney) cells expressing hCRTH2; membrane preparation
T1 sequence (Q9Y5Y4 1-395): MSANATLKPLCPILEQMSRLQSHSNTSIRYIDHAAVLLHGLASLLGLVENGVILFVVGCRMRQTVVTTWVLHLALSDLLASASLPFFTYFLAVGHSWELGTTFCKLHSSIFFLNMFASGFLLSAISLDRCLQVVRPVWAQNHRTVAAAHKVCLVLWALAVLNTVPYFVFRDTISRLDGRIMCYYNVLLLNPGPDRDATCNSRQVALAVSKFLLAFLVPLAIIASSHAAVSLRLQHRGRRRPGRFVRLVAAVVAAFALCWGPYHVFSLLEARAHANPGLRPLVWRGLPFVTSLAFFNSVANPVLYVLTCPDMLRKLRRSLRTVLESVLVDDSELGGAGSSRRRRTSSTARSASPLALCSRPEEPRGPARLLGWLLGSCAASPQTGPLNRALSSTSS
Protocol: Biological Assays Radioligand Binding Assay.
Radioligand binding assays were performed at room temperature in 50 mM Tris-HCl pH 7.4, 1 mM EDTA containing 2 mM MnCl2 and 3.0 nM [^3H]PGD2 (New England Nuclear, Boston, Mass.) (171 Ci mmol^−1), in a final volume of 0.2 mL. Competing ligands were diluted in dimethylsulfoxide (Me2SO) that was kept constant at 1% (v/v) of the final incubation volume. The reaction was initiated by the addition of 8-20 μg of membrane protein prepared from a human embryonic kidney (HEK)-hCRTH2 cell line. Total and non-specific binding were determined in the absence and the presence of 10 μM PGD2, respectively. […] The reaction was routinely conducted for 60 min at room temperature and terminated by rapid filtration through prewetted (0.3% polyethyleneimine) 96-well printed Filtermate™ (Wallac) using a Tomtec® harvester (Hamden, Conn.). After washing with cold buffer, the filter was dried for 2 minutes in microwave, and Meltilex Scintillator sheet (Wallac) was melted on for 2 min. The radioactivity was measured with Betaplate model 1205 (Wallac).

Row | SMILES | Ki
1 | C[C@@H](NC(=O)c1ccc2nc(-c3ccc(Cl)cc3)c(CC3CCC(C(=O)O)C3)nc2c1)c1ccc(F)cc1 (mixture of isomers) [compound 28, 3-((3-(4-chlorophenyl)-7-((R)-1-(4-fluorophenyl)ethylcarbamoyl)quinoxalin-2-yl)methyl)cyclopentanecarboxylic acid] | 2.1 to 20 nM
2 | O=C(N[C@@H]1CCCc2ccccc21)c1ccc2nc(-c3ccccc3)c(CCCC(F)C(=O)O)nc2c1 (mixture of isomers) [compound 38, 2-fluoro-5-(3-phenyl-7-(((R)-1,2,3,4-tetrahydronaphthalen-1-yl)carbamoyl)quinoxalin-2-yl)pentanoic acid] | 20.1 to 200 nM
3 | CC(NC(=O)c1ccc2nc(-c3ccc(C(F)(F)F)cc3)c(CCCCC(=O)O)nc2c1)c1ccc(-c2ccccc2)cc1 (racemic) [4E, 7-[[(1-[1,1′-biphenyl]-4-ylethyl)amino]carbonyl]-3-[4-(trifluoromethyl)-phenyl]-2-quinoxaline-pentanoic acid] | 0.1 to 2 nM
4 | CC(NC(=O)c1ccc2nc(-c3ccc(C(F)(F)F)cc3)c(CCCCC(=O)O)nc2c1)c1ccc(-c2ccccc2)cc1 (single isomer, unassigned) [4F, 7-[[(1-[1,1′-biphenyl]-4-ylethyl)amino]carbonyl]-3-[4-(trifluoromethyl)-phenyl]-2-quinoxaline-pentanoic acid] | 2.1 to 20 nM
5 | CC(NC(=O)c1ccc2nc(-c3ccc(C(F)(F)F)cc3)c(CCCCC(=O)O)nc2c1)c1ccc(-c2ccccc2)cc1 (single isomer, unassigned) [4G, 7-[[(1-[1,1′-biphenyl]-4-ylethyl)amino]carbonyl]-3-[4-(trifluoromethyl)-phenyl]-2-quinoxaline-pentanoic acid] | 2.1 to 20 nM
6 | O=C(O)C1CC1CCc1nc2cc(C(=O)N3CCC(c4ccccc4)CC3)ccc2nc1-c1ccccc1 (single isomer, unassigned) [20F, 2-(2-(3-phenyl-7-(4-phenylpiperidine-1-carbonyl)quinoxaline-2-yl)ethyl)cyclopropanecarboxylic acid] | 2.1 to 20 nM
7 | O=C(O)C1CC1CCc1nc2cc(C(=O)N3CCC(c4ccccc4)CC3)ccc2nc1-c1ccccc1 (single isomer, unassigned) [20G, 2-(2-(3-phenyl-7-(4-phenylpiperidine-1-carbonyl)quinoxaline-2-yl)ethyl)cyclopropanecarboxylic acid] | 2.1 to 20 nM
8 | O=C(O)C1CC1CCc1nc2cc(C(=O)N3CCC(c4ccccc4)CC3)ccc2nc1-c1ccccc1 (single isomer, unassigned) [20H, 2-(2-(3-phenyl-7-(4-phenylpiperidine-1-carbonyl)quinoxaline-2-yl)ethyl)cyclopropanecarboxylic acid] | 2.1 to 20 nM
9 | O=C(N[C@@H]1CCCc2ccccc21)c1ccc2nc(-c3ccccc3)c(CCCC(F)C(=O)O)nc2c1 (single isomer, unassigned) [38A] | 20.1 to 200 nM
10 | O=C(N[C@@H]1CCCc2ccccc21)c1ccc2nc(-c3ccccc3)c(CCCC(F)C(=O)O)nc2c1 (single isomer, unassigned) [38B] | 20.1 to 200 nM
11 | O=C(O)C1CC1CCc1nc2cc(C(=O)N3CCC(c4ccccc4)CC3)ccc2nc1-c1ccccc1 (single isomer, unassigned) [compound 20, 2-(2-(3-phenyl-7-(4-phenylpiperidine-1-carbonyl)quinoxaline-2-yl)ethyl)cyclopropanecarboxylic acid] | 20.1 to 200 nM
12 | CC(NC(=O)c1ccc2nc(-c3ccc(Cl)cc3)c(CCCCC(=O)O)nc2c1)c1ccccn1 (stereo in doubt) [16AA, 3-(4-chlorophenyl)-7-[[[1(S)-(2-pyridinyl)ethyl]amino]carbonyl]-2-quinoxalinepentanoic acid] | 0.1 to 2 nM
13 | O=C(O)CCCCc1nc2cc(C(=O)N3CCC(c4ccccc4)C3)ccc2nc1-c1ccc(C(F)(F)F)cc1 (stereo in doubt) [compound 152, 7-[(3R)-phenyl-1-pyrrolidinyl)carbonyl]-3-[4-(trifluoromethyl)phenyl]-2-quinoxalinepentanoic acid] | 2.1 to 20 nM
14 | O=C(O)CCCCc1nc2cc(C(=O)N3CCC(c4ccccc4)C3)ccc2nc1-c1ccc(C(F)(F)F)cc1 (stereo in doubt) [compound 153, 7-[(3(S)-phenyl-1-pyrrolidinyl]carbonyl]-3-[4-(trifluoromethyl)phenyl]-2-quinoxalinepentanoic acid] | 0.1 to 2 nM
15 | CC(NC(=O)c1ccc2nc(-c3ccc(C(F)(F)F)cc3)c(CCCCC(=O)O)nc2c1)c1ccncc1 (stereo not drawn) [3AA, 7-[[[1-(4-pyridinyl)ethyl]-amino]carbonyl]-3-[4-(trifluoromethyl)-phenyl]-2-quinoxaline-pentanoic acid] | 2.1 to 20 nM
16 | CC(NC(=O)c1ccc2nc(-c3ccc(C(F)(F)F)cc3)c(CCCCC(=O)O)nc2c1)c1ccccn1 (stereo not drawn) [3AB, 7-[[[1-(2-pyridinyl)ethyl]-amino]carbonyl]-3-[4-(trifluoromethyl)phenyl]-2-quinoxalinepentanoic acid] | 2.1 to 20 nM

Row | SMILES | Ki
17 | O=C(O)CCCCc1nc2cc(C(=O)NCc3ccncc3)ccc2nc1-c1ccc(C(F)(F)F)cc1 [3AC, 7-[[(4-pyridinylmethyl)-amino]carbonyl]-3-[4-(trifluoromethyl)phenyl]-2-quinoxalinepentanoic acid] | 2.1 to 20 nM
18 | O=C(O)CCCCc1nc2cc(C(=O)NCc3cccnc3)ccc2nc1-c1ccc(C(F)(F)F)cc1 [3AD] | 2.1 to 20 nM
19 | O=C(O)CCCCc1nc2cc(C(=O)NCc3ccccn3)ccc2nc1-c1ccc(C(F)(F)F)cc1 [3AE, 7-[[(2-pyridinylmethyl)-amino]carbonyl]-3-[4-(trifluoromethyl)phenyl]-2-quinoxalinepentanoic acid] | 2.1 to 20 nM
20 | O=C(O)CCCCc1nc2cc(C(=O)NCc3ccc(C(F)(F)F)nc3)ccc2nc1-c1ccc(C(F)(F)F)cc1 [3AF, 3-[4-(trifluoromethyl)phenyl]-7-[[[[6-(trifluoromethyl)-3-pyridinyl]methyl]amino]-carbonyl]-2-quinoxaline-pentanoic acid] | 2.1 to 20 nM
21 | COC(=O)c1ccc2nc(-c3ccc(C(F)(F)F)cc3)c(CCCCC(=O)O)nc2c1 [3AG, 7-(methoxycarbonyl)-3-[4-(trifluoromethyl)phenyl]-2-quinoxalinepentanoic acid] | 2.1 to 20 nM
22 | O=C(O)CCCCc1nc2cc(C(=O)Nc3ccc(F)cc3)ccc2nc1-c1cccc(F)c1 [3T, 3-(3-fluorophenyl)-7-[[(4-fluorophenyl)amino]carbonyl]-2-quinoxalinepentanoic acid] | 20.1 to 200 nM
23 | O=C(O)CCCCc1nc2cc(C(=O)Nc3cccc(F)c3)ccc2nc1-c1cccc(F)c1 [3U, 3-(3-fluorophenyl)-7-[[(3-fluorophenyl)amino]carbonyl]-2-quinoxalinepentanoic acid] | 20.1 to 200 nM
24 | O=C(O)CCCCc1nc2cc(C(=O)Nc3ccccc3F)ccc2nc1-c1cccc(F)c1 [3V, 3-(3-fluoropheny)-7-[[(2-fluorophenyl)amino]carbonyl]-2-quinoxalinepentanoic acid] | 201 to 700 nM
25 | C[C@H](NC(=O)c1ccc2nc(-c3ccc(C(F)(F)F)cc3)c(CCCCC(=O)O)nc2c1)c1ccccc1 [3W, 7-[[(1-(S)-phenylethyl)amino]carbonyl]-3-[4-(trifluoromethyl)phenyl]-2-quinoxalinepentanoic acid] | 2.1 to 20 nM
26 | C[C@@H](NC(=O)c1ccc2nc(-c3ccc(C(F)(F)F)cc3)c(CCCCC(=O)O)nc2c1)c1ccccc1 [3X, 7-[[(1-(R)-phenylethyl)amino]carbonyl]-3-[4-(trifluoromethyl)phenyl]-2-quinoxalinepentanoic acid] | 2.1 to 20 nM
27 | O=C(O)CCCCc1nc2cc(C(=O)N3CCN(c4ccccc4)CC3)ccc2nc1-c1ccc(C(F)(F)F)cc1 [3Y, 7-[(4-phenyl-1-piperazinyl)carbonyl]-3-[4-(trifluoromethyl)phenyl]-2-quinoxalinepentanoic acid] | 0.1 to 2 nM
28 | O=C(O)CCCCc1nc2cc(C(=O)C3CC3)ccc2nc1-c1ccc(C(F)(F)F)cc1 [3Z, 7-(cyclopropylcarbonyl)-3-[4-(trifluoromethyl)phenyl]-2-quinoxalinepentanoic acid] | 0.1 to 2 nM
29 | C[C@@H](NC(=O)c1ccc2nc(-c3ccc(C(F)(F)F)cc3)c(CCCCC(=O)O)nc2c1)c1cccc(-c2ccccc2)c1 [4D, 7-[[[1-(R)-[1,1′-biphenyl]-3-ylethyl]amino]carbonyl]-3-[4-(trifluoromethyl)-phenyl]-2-quinoxaline-pentanoic acid] | 20.1 to 200 nM
30 | O=C(O)CCCCc1nc2cc(C(=O)c3ccccc3)ccc2nc1-c1ccc(F)cc1 [5G] | 0.1 to 2 nM
31 | O=C(O)CCCCc1nc2cc(C(=O)Nc3cccc(F)c3)ccc2nc1-c1ccc(F)cc1 [5N, 3-(4-fluorophenyl)-7-[[(3-fluorophenyl)amino]carbonyl]-2-quinoxalinepentanoic acid] | 20.1 to 200 nM
32 | O=C(O)CCCCc1nc2cc(C(=O)Nc3ccc(F)cc3)ccc2nc1-c1ccc(F)cc1 [5O, 3-(4-fluorophenyl)-7-[[(4-fluorophenyl)amino]carbonyl]-2-quinoxalinepentanoic acid] | 20.1 to 200 nM

same assay, conditions: [3H]PGD2 binding, values in text

Row | SMILES | Ki
33 | O=C(O)CCCCc1nc2cc(C(=O)N3CCC(c4ccccc4)C3)ccc2nc1-c1ccc(C(F)(F)F)cc1 (stereo in doubt) [compound 152, 7-[(3R)-phenyl-1-pyrrolidinyl)carbonyl]-3-[4-(trifluoromethyl)phenyl]-2-quinoxalinepentanoic acid] | 2.9 nM
